Measurements from US5908828A, “Synthetic peptide derivatives and the salts thereof” (Hoechst Japan Limited, priority 1994, dated 1999).
Bridge positions count the residues as written; N and C are the ends. Ends that are not written are not given here. I, II: the chains in the order shown.

Test system: ALPase activity in MC3T3-E1 cells promoted by rh-BMP-2
Test: Assay of BMP inhibiting activity (BMP-2 antagonist-like activity): ALPase activity in cultured MC3T3-E1 cells
Assay type: cell-based, mouse
Settings: for ALPase activity: MC3T3-E1 cells, 2 days
Experimental: BMP-2 antagonist-like activity of the present synthetic peptide derivatives was assayed by way of cultured MC3T3-E1 cells which were established from mouse calvaria having osteoblast-like property, by Kodama et al. (Kodama, H. et al. (1981) Jpn. J Oral. Biol., vol.23, p.899). The cultured MC3T3-E1 cells were prepared according to Takuwa et al. (Takuwa, Y. et al., (1991) Biochem.
Biophys. Res. Comuni., vol. […] ALPase is often used as an indicator enzyme for differentiation and maturity of osteoblasts and chondrocytes (Pfeilschifter, J., et al., Endocrinology (1987), vol. 121, p212-218; Rodan, G. A., et al., calcium regulating hormones and bone metabolism, Elsevir Science Publishers B.V., (1992), p 183-196).

synthetic peptide derivative: Fragment P1 (SEQ ID NO:1, N-terminal acetyl-Cys) joined to Fragment P2 (SEQ ID NO:2) through a 4-(N-maleimidomethyl)cyclohexane-1-carbonyl linker (chain 1 {CH2CO}-CDFSDVGWNDWIVAPPGY; chain 2 AIVQTLVNSVNSKIPKA; thioether I:N-II:N via 4‑(N-maleimidomethyl)cyclohexane‑1‑carbonyl; not fully specified (N-terminus, C-terminus, bridges))
inhibition of rh-BMP-2-promoted ALPase activity in MC3T3-E1 cells (2×10^-9 to 2×10^-6 M, result in words): inhibited ALPase activity in MC3T3-E1 cells which were promoted by rh-BMP-2 with 2×10^-9 to 2×10^-6 M dose dependently
ALPase activity (rh-BMP-2 5 ng/ml + synthetic peptide derivative 2 × 10^-7 M, n = 4): 302 ± 54 pmol/min
ALPase activity (rh-BMP-2 5 ng/ml + synthetic peptide derivative 2 × 10^-8 M, n = 4): 486 ± 36 pmol/min
ALPase activity (rh-BMP-2 5 ng/ml + synthetic peptide derivative 2 × 10^-9 M, n = 4): 632 ± 71 pmol/min
ALPase activity (rh-BMP-2 5 ng/ml + synthetic peptide derivative 2 × 10^-10 M, n = 4): 876 ± 120 pmol/min
ALPase activity (rh-BMP-2 (b ng/ml) + synthetic peptide derivative 2 × 10^-6 M, n = 1): 269 pmol/min
